Laboratory results as given in patent US10045968B2, “Bicyclic compound, production and use thereof” (TOBIRA THERAPEUTICS, INC., priority 2001, dated 2018).

What follows are molecules tested against T1, human CCR5 (Homo sapiens, UniProt P51681) (assay: Inhibition of [125I]-RANTES binding to CCR5/CHO cells (CCR5 antagonist activity)). Settings: 40 min, test compound 1 μM, 100 pM [125I]-RANTES as ligand, room temperature, read-out: Binding Inhibitory Ratio (%).
T1 construct: expressed in transfected cells; host or cells: CHO-K1 cells, stably transfected with pCKR5 (pcDNA3.1 backbone), Geneticin-selected
T1 sequence (P51681 whole entry): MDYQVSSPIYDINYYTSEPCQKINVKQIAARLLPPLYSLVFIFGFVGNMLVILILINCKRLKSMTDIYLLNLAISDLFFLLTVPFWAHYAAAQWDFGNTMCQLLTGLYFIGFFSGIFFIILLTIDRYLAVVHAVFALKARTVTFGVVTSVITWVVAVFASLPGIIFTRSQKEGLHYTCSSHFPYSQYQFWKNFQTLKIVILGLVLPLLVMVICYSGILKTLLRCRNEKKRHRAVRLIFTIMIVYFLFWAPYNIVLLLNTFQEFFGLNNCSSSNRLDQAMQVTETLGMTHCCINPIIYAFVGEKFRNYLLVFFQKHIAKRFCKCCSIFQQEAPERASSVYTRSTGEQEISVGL
Description: (1) Cloning of Human CCR5 Chemokine Receptor Cloning of CCR5 gene was conducted from human spleen cDNA by PCR method. Using cDNA (0.5 ng) from spleen (Toyobo, QUICK-Clone cDNA) as a genetic template, primer sets prepared by referring to CCR5 gene nucleotide sequence described by Samson et al. (Biochemistry 35 (11), 3362-3367 (1996), i.e., (2) Preparation of Expression Plasmid of Human CCR5 […] The DNA fragments and an expression plasmid for animal cells pcDN A3.1 (Funakoshi), which was previously digested by XbaI and BamHI, were mixed and ligated by DNA Ligation Kit Ver. 2 (Takara Shuzo). Transformation of E. coli JM109 competent cells (Takara Shuzo) gave plasmid pCKR5. (3) Introduction of the Human CCR5 Expression Plasmid into CHO-K1 Cells and Expression Thereof […] The cells were washed with PBS (Lifetech Oriental), centrifuged (1000 rpm, 5 minutes), and resuspended in PBS. The DNA was introduced into the cells using Gene Pulser (BioRad) according to the following conditions. […] The cells were diluted to a concentration of 10^4 cells/ml, and inoculated in 96 well plate (Becton Dickinson), to obtain Geneticin-resistant cells. The Geneticin-resistant cells ware grown in 96 well plate (Becton Dickinson), and CCR5 expressing cells were selected from the resistant cells. Namely, in an assay buffer, (Ham F12 medium containing 0.5% BSA, and 20 mM HEPES (Wako Pure Chemical Ind., pH 7.2)), containing 200 pM [^125I]-RANTES (Amersham) as a ligand, the cells were subjected to binding reaction at room temperature for 40 minutes. The well plate containing the cells was washed with ice-cooled PBS, added with 1M NaOH in an amount of 50 μl/well and stirred. The cells to which the ligand bound specifically, i.e., CCR5/CHO cells, were selected by measurement of radioactivity by γ-counter. (4) Evaluation of Compounds Based on CCR5 Antagonist Activity The CCR5/CHO cells were inoculated in 96 well microplate at a concentration of 5×10^4 cells/well, and grown for 24 hours. After removal of the medium by aspiration, to each well was added an assay buffer containing a test compound (1 μM), and (^125I)/RANTES (Amersham) used as a ligand at a concentration of 100 pM. The mixture was subjected to the reaction at room temperature for 40 minutes. After removal of the assay buffer by aspiration, each well was washed with cooled PBS twice. Then, 200 μl MicroScint 20 (Packerd) was added to each well, and the radioactivity of each well was measured by TopCount (Packard). According to the method above, inhibitory ratios to CCR5 binding of the test compounds were determined.
With `CCCCOCCOc1ccc(-c2ccc3c(c2)C=C(C(=O)Nc2ccc([S+]([O-])Cc4nncn4CCC)cc2)CCCN3CC(C)C)cc1` (single isomer, unassigned; (+)) [Compound 48, (+)-8-[4-(2-butoxyethoxy)phenyl]-1-isobutyl-N-[4-[[(4-propyl-4H-1,2,4-triazol-3-yl)methyl]sulfinyl]phenyl]-1,2,3,4-tetrahydro-1-benzazocine-5-carboxamide] the inhibition at 1 µM was 97%. `CCCCOCCOc1ccc(-c2ccc3c(c2)C=C(C(=O)Nc2ccc([S+]([O-])Cc4cncn4CCC)cc2)CCCN3CCC)cc1` (single isomer, unassigned; (-)) [Compound 9, (−)-8-[4-(2-butoxyethoxy)phenyl]-1-propyl-N-[4-[[[1-propylimidazol-5-yl]methyl]sulfinyl]phenyl]-1,2,3,4-tetrahydro-1-benzoazocine-5-carboxamide] was tested, and the inhibition at 1 µM was 100%. Molecule `CCCCOCCOc1ccc(-c2ccc3c(c2)C=C(C(=O)Nc2ccc([S+]([O-])Cc4nccn4CCC)cc2)CCCN3CCC)cc1` (single isomer, unassigned; (-)) [Compound 22, (−)-8-[4-(2-butoxyethoxy)phenyl]-1-propyl-N-[4-[[[1-propylimidazol-2-yl]methyl]sulfinyl]phenyl]-1,2,3,4-tetrahydro-1-benzoazocine-5-carboxamide] has an inhibition at 1 µM of 98%. For `CCCCOCCOc1ccc(-c2ccc3c(c2)C=C(C(=O)Nc2ccc([S+]([O-])Cc4cncn4CCC)cc2)CCCCN3CC(C)C)cc1` (single isomer, unassigned; (-)) [Compound 26, (−)-9-[4-(2-butoxyethoxy)phenyl]-1-isobutyl-N-[4-[[[1-propylimidazol-5-yl]methyl]sulfinyl]phenyl]-2,3,4,5-tetrahydro-1H-1-benzoazonin-6-carboxamide], the inhibition at 1 µM was 100%. Molecule `CCCCOCCOc1ccc(-c2ccc3c(c2)C=C(C(=O)Nc2ccc([S+]([O-])Cc4cncn4CCC)cc2)CCCN3Cc2cnn(C)c2)cc1` (single isomer, unassigned; (-)) [Compound 34, (−)-8-[4-(2-butoxyethoxy)phenyl]-1-((1-methylpyrazol-4-yl)methyl)-N-[4-[[[1-propylimidazol-5-yl]methyl]sulfinyl]phenyl]-1,2,3,4-tetrahydro-1-benzoazocine-5-carboxamide] has an inhibition at 1 µM of 97%. With `CCCCOCCOc1ccc(-c2ccc3c(c2)C=C(C(=O)Nc2ccc(CN(C)C4CCOCC4)cc2)CCCO3)cc1` [Compound 1, 8-[4-(2-butoxyethoxy)phenyl]-N-[4-[[N-methyl-N-(tetrahydropyran-4-yl)amino]methyl]phenyl]-3,4-dihydro-2H-1-benzoxocin-5-carboxamide] the inhibition at 1 µM was 94%. With `CCCCOCCOc1ccc(-c2ccc3c(c2)C=C(C(=O)Nc2ccc(CN(C)C4CCOCC4)cc2)CCCN3CCC)cc1` [Compound 2, 8-[4-(2-butoxyethoxy)phenyl]-1-propyl-N-[4-[[N-methyl-N-(tetrahydropyran-4-yl)amino]methyl]phenyl]-1,2,3,4-tetrahydro-1-benzazocine-5-carboxamide] the inhibition at 1 µM was 96%. `CCCCOCCOc1ccc(-c2ccc3c(c2)C=C(C(=O)Nc2ccc(SCc4cncn4CCC)cc2)CCCN3CCC)cc1` [Compound 3, 8-[4-(2-butoxyethoxy)phenyl]-1-propyl-N-[4-[[[1-propylimidazol-5-yl]methyl]sulfanyl]phenyl]-1,2,3,4-tetrahydro-1-benzazocine-5-carboxamide] gave an inhibition at 1 µM of 91%. Molecule `CCCCOCCOc1ccc(-c2ccc3c(c2)C=C(C(=O)Nc2ccc(S(=O)(=O)Cc4cncn4CCC)cc2)CCCN3CCC)cc1` [Compound 5, 8-[4-(2-butoxyethoxy)phenyl]-1-propyl-N-[4-[[[1-propylimidazol-5-yl]methyl]sulfonyl]phenyl]-1,2,3,4-tetrahydro-1-benzazocine-5-carboxamide] has an inhibition at 1 µM of 86%. `CCCCOCCOc1ccc(-c2ccc3c(c2)C=C(C(=O)Nc2ccc([S+]([O-])Cc4cncn4CCC)cc2)CCCN3CC(C)C)cc1` (stereo not shown) [Compound 7, 8-[4-(2-butoxyethoxy)phenyl]-1-isobutyl-N-[4-[[[1-propyl-1H-imidazol-5-yl]methyl]sulfinyl]phenyl]-1,2,3,4-tetrahydro-1-benzazocine-5-carboxamide] was tested, and the inhibition at 1 µM was 100%.

Same assay, conditions: test compound 1 μM, 100 pM [125I]-RANTES as ligand, room temperature, 40 minutes
In the case of `CCCCOCCOc1ccc(-c2ccc3c(c2)C=C(C(=O)Nc2ccc([S+]([O-])Cc4nncn4CCC)cc2)CCCN3CCC)cc1` (single isomer, unassigned; (+)) [Compound 53, (+)-8-[4-(2-butoxyethoxy)phenyl]-1-propyl-N-[4-[[(4-propyl-4H-1,2,4-triazol-3-yl)methyl]sulfinyl]phenyl]-1,2,3,4-tetrahydro-1-benzazocin-5-carboxamide], the “Binding Inhibitory Ratio (%)” value was 100%. For `CCCCOCCOc1ccc(-c2ccc3c(c2)C=C(C(=O)Nc2ccc([S+]([O-])Cc4cncn4CCC)cc2)CCCN3CC(C)C)cc1.CS(=O)(=O)O` (single isomer, unassigned; (-)) [Compound 14, (−)-8-[4-(2-butoxyethoxy)phenyl]-1-isobutyl-N-[4-[[[1-propyl-1H-imidazol-5-yl]methyl]sulfinyl]phenyl]-1,2,3,4-tetrahydro-1-benzoazocine-5-carboxamide methanesulfonate], the “Binding Inhibitory Ratio (%)” value was 98%. In the case of `C=C(C)CN1CCCC(C(=O)Nc2ccc([S+]([O-])Cc3cncn3CCC)cc2)=Cc2cc(-c3ccc(OCCOCCCC)cc3)ccc21` (single isomer, unassigned; (-)) [Compound 23, (−)-8-[4-(2-butoxyethoxy)phenyl]-1-(2-methyl-2-propen-1-yl)-N-[4-[[[1-propylimidazol-5-yl]methyl]sulfinyl]phenyl]-1,2,3,4-tetrahydro-1-benzoazocine-5-carboxylic], the “Binding Inhibitory Ratio (%)” value was 97%. With `CCCCOCCOc1ccc(-c2ccc3c(c2)C=C(C(=O)Nc2ccc([S+]([O-])Cc4nncn4CCC)cc2)CCCN3CC(C)C)cc1` (single isomer, unassigned; (-)) [Compound 49, (−)-8-[4-(2-butoxyethoxy)phenyl]-1-isobutyl-N-[4-[[(4-propyl-4H-1,2,4-triazol-3-yl)methyl]sulfinyl]phenyl]-1,2,3,4-tetrahydro-1-benzazocine-5-carboxamide] the “Binding Inhibitory Ratio (%)” value was 91%. For `CCCCOCCOc1ccc(-c2ccc3c(c2)C=C(C(=O)Nc2ccc([S+]([O-])Cc4nncn4CCC)cc2)CCCN3CCC)cc1` (single isomer, unassigned; (-)) [Compound 52, (−)-8-[4-(2-butoxyethoxy)phenyl]-1-propyl-N-[4-[[[4-propyl-4H-1,2,4-triazol-3-yl]methyl]sulfinyl]phenyl]-1,2,3,4-tetrahydro-1-benzazocine-5-carboxamide], the “Binding Inhibitory Ratio (%)” value was 96%. In the case of `CCCCOCCOc1ccc(-c2ccc3c(c2)C=C(C(=O)Nc2ccc([S+]([O-])Cc4cncn4CCC)cc2)CCCN3CCC)cc1` (stereo not shown) [Compound 4, 8-[4-(2-butoxyethoxy)phenyl]-1-propyl-N-[4-[[[1-propylimidazol-5-yl]methyl]sulfinyl]phenyl]-1,2,3,4-tetrahydro-1-benzazocine-5-carboxamide], the “Binding Inhibitory Ratio (%)” value was 100%. `CCCCOCCOc1ccc(-c2ccc3c(c2)C=C(C(=O)Nc2ccc(SCc4cncn4CCC)cc2)CCCN3CC(C)C)cc1` [Compound 6] was tested, and the “Binding Inhibitory Ratio (%)” value was 98%. For `CCCCOCCOc1ccc(-c2ccc3c(c2)C=C(C(=O)Nc2ccc(SCc4cncn4CCC)cc2)CCCN3CC(C)C)cc1` [Compound 8, 8-[4-(2-butoxyethoxy)phenyl]-I-isobutyl-N-[4-[[[1-propyl-1H-imidazol-5-yl]methyl]sulfanyl]phenyl]-1,2,3,4-tetrahydro-1-benzazocine-5-carboxamide], the “Binding Inhibitory Ratio (%)” value was 99%. `CCCCOCCOc1ccc(-c2ccc3c(c2)C=C(C(=O)Nc2ccc([S+]([O-])Cc4cncn4CCC)cc2)CCCN3CC(C)CO)cc1` (stereo not shown) [Compound 32, 8-[4-(2-butoxyethoxy)phenyl]-1-(2-methyl-3-hydroxy)propyl-N-[4-[[[1-propylimidazol-5-yl]methyl]sulfinyl]phenyl]-1,2,3,4-tetrahydro-1-benzoazocine-5-carboxamide] was tested, and the “Binding Inhibitory Ratio (%)” value was 100%.
